Patent publication US11779019B2, “Composition made from polyol(s) and sterol(s) for use in the agricultural field” (ELICIT PLANT, priority 2017, dated 2023)

Tested on: parsley (Petroselinum crispum)
Assay: Resistance of parsley to flooding (abiotic) stress after watering with sample solutions
Type: in vivo
Conditions: potted parsley, watering every three days with 40 ml of 97% water+3% of the sample, observed after 18 days, vs water control
Method: The effectiveness of each combination on the plants tolerance to abiotic stress is analyzed.
Before the treatment all the leaves of the parsley plants are cut off.
This abundant watering is intended to mimic a flooding stress.
Each batch consists of four pots.
After 18 days the plants are observed, and pictures are taken.

SMILES: CC[C@H](CC[C@@H](C)[C@H]1CC[C@H]2[C@@H]3CC=C4C[C@@H](O)CC[C@]4(C)[C@H]3CC[C@]12C)C(C)C [A, beta-sitosterol]
- effect on the plants' tolerance to stress (flooding stress): All the samples, except the beta sitosterol alone (sample A), show a positive effect
